Measurements published in ChEMBL document CHEMBL1201862, “PubChem BioAssay data set” (2004).
Activity calls are given as the source filed them.

What was measured:
[1] = molecular target: T1, Small ubiquitin-related modifier 1 (Homo sapiens, UniProt P63165); experiment: inhibitors of SUMO1 partner interactions, dose response, biochemical, FRET (AID 624383); format: functional; details: read-out: IC50_Mean
Prothrombin = Prothrombin (Bos taurus, UniProt P00735); experiment: thrombin inhibition, dose response, biochemical, fluorescence polarization, uHTS hits (AID 602369); format: functional
[2] = molecular target: 26S proteasome non-ATPase regulatory subunit 14 (Homo sapiens, UniProt O00487); experiment: inhibition of proteasome subunit RPN11 – biochemical, fluorescence polarization, uHTS hits, confirmation (AID 602368); format: functional
26S proteasome non-ATPase regulatory subunit 14, sequence (O00487 whole entry): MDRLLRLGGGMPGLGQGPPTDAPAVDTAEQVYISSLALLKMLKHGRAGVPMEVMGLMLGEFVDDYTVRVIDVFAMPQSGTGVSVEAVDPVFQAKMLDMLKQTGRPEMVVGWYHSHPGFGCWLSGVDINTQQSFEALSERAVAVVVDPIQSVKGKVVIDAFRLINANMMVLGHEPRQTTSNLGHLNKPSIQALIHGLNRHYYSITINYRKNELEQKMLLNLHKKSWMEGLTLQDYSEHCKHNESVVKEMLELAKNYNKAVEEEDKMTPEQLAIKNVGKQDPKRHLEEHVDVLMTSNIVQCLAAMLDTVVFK

[3] = molecular target: T1, Small ubiquitin-related modifier 1; experiment: inhibitors of SUMO1 peptide binding, dose response, biochemical, fluorescence polarization, uHTS hits (AID 624382); format: functional; details: read-out: IC50_Mean
[4] = molecular target: 72 kDa type IV collagenase (Homo sapiens, UniProt P08253); experiment: Dose Response validation of uHTS RPN11 inhibitor hits using a MMP-2 Fluorescence assay.; format: functional
72 kDa type IV collagenase, sequence (P08253 whole entry): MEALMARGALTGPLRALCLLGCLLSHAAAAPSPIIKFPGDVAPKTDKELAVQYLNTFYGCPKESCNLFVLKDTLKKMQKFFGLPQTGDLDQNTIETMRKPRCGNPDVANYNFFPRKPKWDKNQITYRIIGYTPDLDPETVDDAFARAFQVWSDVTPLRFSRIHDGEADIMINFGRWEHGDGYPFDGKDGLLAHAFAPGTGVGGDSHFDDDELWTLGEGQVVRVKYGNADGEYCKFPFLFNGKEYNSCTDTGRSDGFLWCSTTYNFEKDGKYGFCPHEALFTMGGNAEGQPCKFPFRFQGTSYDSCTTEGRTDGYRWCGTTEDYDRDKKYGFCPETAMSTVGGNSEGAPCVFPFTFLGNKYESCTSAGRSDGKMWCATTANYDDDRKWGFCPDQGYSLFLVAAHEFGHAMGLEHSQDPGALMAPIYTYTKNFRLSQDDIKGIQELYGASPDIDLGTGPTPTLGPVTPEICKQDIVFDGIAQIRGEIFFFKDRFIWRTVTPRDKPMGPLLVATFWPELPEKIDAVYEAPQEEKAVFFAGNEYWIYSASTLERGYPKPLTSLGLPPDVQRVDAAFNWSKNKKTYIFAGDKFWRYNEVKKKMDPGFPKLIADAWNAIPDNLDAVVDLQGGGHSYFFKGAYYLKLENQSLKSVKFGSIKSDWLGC

[5] = molecular target: Tyrosine-protein phosphatase non-receptor type 5 (Homo sapiens, UniProt P54829); experiment: STEP phosphatase inhibitors, confirmation, biochemical, fluorescence intensity, uHTS hits (AID 602372); format: functional; details: read-out: IC50_Mean
Tyrosine-protein phosphatase non-receptor type 5, sequence (P54829 whole entry, the tested form may be a part): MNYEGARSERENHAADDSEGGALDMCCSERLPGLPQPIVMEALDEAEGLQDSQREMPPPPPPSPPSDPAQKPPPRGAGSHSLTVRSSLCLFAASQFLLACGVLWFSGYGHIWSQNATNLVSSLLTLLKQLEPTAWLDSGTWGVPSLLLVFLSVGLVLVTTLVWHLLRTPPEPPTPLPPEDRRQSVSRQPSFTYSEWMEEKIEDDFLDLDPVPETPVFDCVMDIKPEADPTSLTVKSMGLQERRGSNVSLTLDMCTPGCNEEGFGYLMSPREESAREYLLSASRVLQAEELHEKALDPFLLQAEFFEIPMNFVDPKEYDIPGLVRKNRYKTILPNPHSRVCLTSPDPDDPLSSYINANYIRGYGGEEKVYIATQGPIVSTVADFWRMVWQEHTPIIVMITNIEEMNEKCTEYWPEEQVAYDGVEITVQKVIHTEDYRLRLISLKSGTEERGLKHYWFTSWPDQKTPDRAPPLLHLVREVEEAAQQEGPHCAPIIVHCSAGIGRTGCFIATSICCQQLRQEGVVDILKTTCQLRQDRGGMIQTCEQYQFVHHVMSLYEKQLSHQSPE

[6] = molecular target: T2, Carboxy-terminal domain RNA polymerase II polypeptide A small phosphatase 1 (Homo sapiens, UniProt Q9GZU7); experiment: inhibitors of CTDSP1, concentration-response testing, biochemical assay, absorbance-based, actives from ultra-high-throughput screening (AID 540297); format: functional
T2 sequence (Q9GZU7 whole entry): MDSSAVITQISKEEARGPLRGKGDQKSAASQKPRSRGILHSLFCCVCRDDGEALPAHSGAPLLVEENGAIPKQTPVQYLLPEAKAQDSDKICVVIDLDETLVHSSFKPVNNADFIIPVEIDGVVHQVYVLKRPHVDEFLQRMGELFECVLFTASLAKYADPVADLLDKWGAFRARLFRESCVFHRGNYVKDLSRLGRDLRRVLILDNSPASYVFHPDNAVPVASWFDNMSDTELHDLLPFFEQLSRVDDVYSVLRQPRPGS

[7] = molecular target: Tyrosine-protein phosphatase non-receptor type 11 (Homo sapiens, UniProt Q06124); experiment: SHP2 phosphatase inhibition, dose response, selectivity assay for STEP inhibitor project, biochemical (AID 602367); format: functional; details: read-out: IC50_Mean
Tyrosine-protein phosphatase non-receptor type 11, sequence (Q06124 whole entry): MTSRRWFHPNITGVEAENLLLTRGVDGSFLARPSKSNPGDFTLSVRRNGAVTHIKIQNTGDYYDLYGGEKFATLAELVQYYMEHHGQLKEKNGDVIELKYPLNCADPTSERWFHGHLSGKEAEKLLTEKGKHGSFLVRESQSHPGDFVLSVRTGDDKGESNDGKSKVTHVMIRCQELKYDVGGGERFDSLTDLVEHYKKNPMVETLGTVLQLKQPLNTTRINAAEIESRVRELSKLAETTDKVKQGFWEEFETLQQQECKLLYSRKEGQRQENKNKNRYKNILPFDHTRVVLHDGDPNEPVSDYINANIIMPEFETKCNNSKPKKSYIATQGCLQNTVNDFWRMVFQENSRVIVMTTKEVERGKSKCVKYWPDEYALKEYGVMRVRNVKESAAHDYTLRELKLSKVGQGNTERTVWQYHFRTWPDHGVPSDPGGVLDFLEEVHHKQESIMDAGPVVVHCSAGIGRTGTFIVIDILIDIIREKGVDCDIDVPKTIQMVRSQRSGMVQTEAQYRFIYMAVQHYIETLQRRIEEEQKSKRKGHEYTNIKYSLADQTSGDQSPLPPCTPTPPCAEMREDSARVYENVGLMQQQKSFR

[8] = molecular target: Dual specificity protein phosphatase 3 (Homo sapiens, UniProt P51452); experiment: VHR phosphatase inhibition, dose response, selectivity assay for STEP inhibitor project, biochemical (AID 602374); format: functional; details: read-out: IC50_Mean
Dual specificity protein phosphatase 3, sequence (P51452 whole entry): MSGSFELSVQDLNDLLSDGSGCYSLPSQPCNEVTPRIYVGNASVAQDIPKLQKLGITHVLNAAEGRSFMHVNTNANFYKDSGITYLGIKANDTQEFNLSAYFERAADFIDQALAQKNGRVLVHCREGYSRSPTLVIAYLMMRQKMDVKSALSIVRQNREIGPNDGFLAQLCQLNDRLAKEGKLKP

[9] = molecular target: T3, High affinity choline transporter 1 (Homo sapiens, UniProt Q9GZV3); experiment: CHT inhibitors, dose response, cell-based, 10-point CRC, membrane potential dye (AID 588401); format: functional;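 further: membrane potential dye fluorescence of choline-evoked depolarization via CHT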
T3 sequence (Q9GZV3 whole entry): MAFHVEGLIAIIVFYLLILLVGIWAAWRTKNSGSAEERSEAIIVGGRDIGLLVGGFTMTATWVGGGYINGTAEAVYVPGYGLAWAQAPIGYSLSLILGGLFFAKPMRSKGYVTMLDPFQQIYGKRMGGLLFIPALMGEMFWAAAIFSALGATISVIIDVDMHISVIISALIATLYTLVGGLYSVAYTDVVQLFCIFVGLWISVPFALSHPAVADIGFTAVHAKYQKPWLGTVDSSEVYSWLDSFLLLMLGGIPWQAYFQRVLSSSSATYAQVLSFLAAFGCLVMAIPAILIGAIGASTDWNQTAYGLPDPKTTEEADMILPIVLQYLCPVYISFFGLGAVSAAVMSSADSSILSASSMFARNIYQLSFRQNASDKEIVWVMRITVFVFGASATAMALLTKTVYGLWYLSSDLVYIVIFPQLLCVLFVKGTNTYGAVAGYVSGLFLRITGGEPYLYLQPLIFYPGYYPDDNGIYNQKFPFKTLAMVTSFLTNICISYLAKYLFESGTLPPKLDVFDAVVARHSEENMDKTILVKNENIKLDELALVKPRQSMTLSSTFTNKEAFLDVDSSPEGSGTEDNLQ

[10] = molecular target: T3, High affinity choline transporter 1; experiment: CHT inhibitors, dose response, cell-based, 5-point CRC, membrane potential dye (AID 504840); format: functional
Orexin receptor type 2 [11] = molecular target: T4, Orexin receptor type 2 (Homo sapiens, UniProt O43614); experiment: Counterscreen assay for antagonists of the orexin 1 receptor (OX1R; HCRTR1): Homogeneous Time Resolved Fluorescence (HTRF)-based cell-based dose response assay for antagonists of the orexin 2 receptor (OX2R; HCRTR2), run by assay provider.; format: functional
T4 sequence (O43614 whole entry): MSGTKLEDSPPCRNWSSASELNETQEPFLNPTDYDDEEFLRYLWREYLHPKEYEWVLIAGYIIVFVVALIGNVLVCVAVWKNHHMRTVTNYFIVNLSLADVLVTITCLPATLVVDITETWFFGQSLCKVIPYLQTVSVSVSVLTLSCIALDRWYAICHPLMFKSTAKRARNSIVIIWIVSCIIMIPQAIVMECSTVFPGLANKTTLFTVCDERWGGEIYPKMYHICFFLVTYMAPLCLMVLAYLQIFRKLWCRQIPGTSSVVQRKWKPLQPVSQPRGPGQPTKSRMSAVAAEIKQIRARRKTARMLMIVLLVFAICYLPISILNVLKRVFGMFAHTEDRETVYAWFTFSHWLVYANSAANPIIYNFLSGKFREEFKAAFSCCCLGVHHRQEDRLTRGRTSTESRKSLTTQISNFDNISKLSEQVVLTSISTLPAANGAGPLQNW

[12] = molecular target: T5, Orexin/Hypocretin receptor type 1 (Homo sapiens, UniProt O43613); experiment: Homogeneous Time Resolved Fluorescence (HTRF)-based cell-based high throughput dose response assay for antagonists of the orexin 1 receptor (OX1R; HCRTR1). [Related pubchem assays (depositor defined):AID434989, AID435008, AID463079, AID485270, AID492963, AID492964, AID492965, AID493232, AID504717, AID504718]; format: functional
T5 sequence (O43613 whole entry): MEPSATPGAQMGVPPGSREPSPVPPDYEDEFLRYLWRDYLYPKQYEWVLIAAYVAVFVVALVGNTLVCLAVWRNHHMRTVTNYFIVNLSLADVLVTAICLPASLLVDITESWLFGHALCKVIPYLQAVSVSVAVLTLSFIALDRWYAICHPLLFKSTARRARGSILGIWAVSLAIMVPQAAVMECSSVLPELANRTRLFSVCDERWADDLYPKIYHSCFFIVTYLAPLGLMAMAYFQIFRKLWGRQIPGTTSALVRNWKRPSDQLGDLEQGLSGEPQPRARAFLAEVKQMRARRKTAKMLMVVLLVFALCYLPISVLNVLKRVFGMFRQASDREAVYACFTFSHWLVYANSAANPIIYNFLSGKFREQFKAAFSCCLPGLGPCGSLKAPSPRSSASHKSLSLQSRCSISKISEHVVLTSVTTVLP

[13] = (§1) Counterscreen for antagonists of the orexin 1 receptor (OX1R; HCRTR1): Fluorescence-based cell-based high throughput dose response assay to identify antagonists of the parental CHO cell line. [Related pubchem assays (depositor defined):AID434989, AID435008, AID463079, AID485270, AID492963, AID492964, AID492965, AID493232, AID504699, AID504701]; format: functional
Orexin receptor type 2 [14] = molecular target: T4, Orexin receptor type 2; experiment: Counterscreen assay for antagonists of the orexin 1 receptor (OX1R; HCRTR1): Fluorescence-based cell-based dose response assay for antagonists of the orexin 2 receptor (OX2R; HCRTR2), run by assay provider.; format: functional
[15] = molecular target: T5, Orexin/Hypocretin receptor type 1; experiment: Fluorescence-based cell-based high throughput dose response assay for antagonists of the orexin 1 receptor (OX1R; HCRTR1). [Related pubchem assays (depositor defined):AID434989, AID435008, AID463079, AID485270, AID492963, AID492964, AID492965, AID493232, AID504717, AID504718]; format: functional
CHO-K1 = experiment: as §1, with “Homogeneous time resolved fluorescence (HTRF)-based” for “Fluorescence-based”, “cell-based” for “cell-based high throughput”, “CHO-K1” for “CHO”; format: functional; details: Cricetulus griseus;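 further: potency for inhibition of ATP-stimulated IP1 production as antagonists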
[16] = molecular target: Adenosylmethionine-8-amino-7-oxononanoate aminotransferase (Mycobacterium tuberculosis, UniProt P9WQ81); experiment: Mycobacterium tuberculosis BioA enzyme inhibitor Measured in Biochemical System Using Plate Reader - 2163-02_Inhibitor_Dose_CherryPick_Activity.; format: functional, Mycobacterium tuberculosis UT205
Adenosylmethionine-8-amino-7-oxononanoate aminotransferase, sequence (P9WQ81 whole entry): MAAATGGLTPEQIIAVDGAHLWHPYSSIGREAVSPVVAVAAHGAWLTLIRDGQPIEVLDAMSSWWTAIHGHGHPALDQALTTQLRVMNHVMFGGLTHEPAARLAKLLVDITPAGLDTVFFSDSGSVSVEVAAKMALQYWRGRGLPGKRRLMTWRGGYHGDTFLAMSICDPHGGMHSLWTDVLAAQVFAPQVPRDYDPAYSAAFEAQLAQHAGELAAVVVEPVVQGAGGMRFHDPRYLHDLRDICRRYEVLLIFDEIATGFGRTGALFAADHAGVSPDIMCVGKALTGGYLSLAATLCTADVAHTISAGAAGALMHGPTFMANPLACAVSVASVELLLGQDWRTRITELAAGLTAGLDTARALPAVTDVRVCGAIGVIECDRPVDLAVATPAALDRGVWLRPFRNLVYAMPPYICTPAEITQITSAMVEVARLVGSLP

cells [17] = format: functional, cell-based
cells [18] = format: functional, cell-based; remark: listed apart in the source
[19] = molecular target: ATP-dependent translocase ABCB1 (Homo sapiens, UniProt P08183); experiment: ABCB1 efflux pump inhibitor potency, dose response, Jurkat-DNR cells, JC-1, flow cytometry (AID 1689); format: functional
ATP-dependent translocase ABCB1, sequence (P08183 whole entry): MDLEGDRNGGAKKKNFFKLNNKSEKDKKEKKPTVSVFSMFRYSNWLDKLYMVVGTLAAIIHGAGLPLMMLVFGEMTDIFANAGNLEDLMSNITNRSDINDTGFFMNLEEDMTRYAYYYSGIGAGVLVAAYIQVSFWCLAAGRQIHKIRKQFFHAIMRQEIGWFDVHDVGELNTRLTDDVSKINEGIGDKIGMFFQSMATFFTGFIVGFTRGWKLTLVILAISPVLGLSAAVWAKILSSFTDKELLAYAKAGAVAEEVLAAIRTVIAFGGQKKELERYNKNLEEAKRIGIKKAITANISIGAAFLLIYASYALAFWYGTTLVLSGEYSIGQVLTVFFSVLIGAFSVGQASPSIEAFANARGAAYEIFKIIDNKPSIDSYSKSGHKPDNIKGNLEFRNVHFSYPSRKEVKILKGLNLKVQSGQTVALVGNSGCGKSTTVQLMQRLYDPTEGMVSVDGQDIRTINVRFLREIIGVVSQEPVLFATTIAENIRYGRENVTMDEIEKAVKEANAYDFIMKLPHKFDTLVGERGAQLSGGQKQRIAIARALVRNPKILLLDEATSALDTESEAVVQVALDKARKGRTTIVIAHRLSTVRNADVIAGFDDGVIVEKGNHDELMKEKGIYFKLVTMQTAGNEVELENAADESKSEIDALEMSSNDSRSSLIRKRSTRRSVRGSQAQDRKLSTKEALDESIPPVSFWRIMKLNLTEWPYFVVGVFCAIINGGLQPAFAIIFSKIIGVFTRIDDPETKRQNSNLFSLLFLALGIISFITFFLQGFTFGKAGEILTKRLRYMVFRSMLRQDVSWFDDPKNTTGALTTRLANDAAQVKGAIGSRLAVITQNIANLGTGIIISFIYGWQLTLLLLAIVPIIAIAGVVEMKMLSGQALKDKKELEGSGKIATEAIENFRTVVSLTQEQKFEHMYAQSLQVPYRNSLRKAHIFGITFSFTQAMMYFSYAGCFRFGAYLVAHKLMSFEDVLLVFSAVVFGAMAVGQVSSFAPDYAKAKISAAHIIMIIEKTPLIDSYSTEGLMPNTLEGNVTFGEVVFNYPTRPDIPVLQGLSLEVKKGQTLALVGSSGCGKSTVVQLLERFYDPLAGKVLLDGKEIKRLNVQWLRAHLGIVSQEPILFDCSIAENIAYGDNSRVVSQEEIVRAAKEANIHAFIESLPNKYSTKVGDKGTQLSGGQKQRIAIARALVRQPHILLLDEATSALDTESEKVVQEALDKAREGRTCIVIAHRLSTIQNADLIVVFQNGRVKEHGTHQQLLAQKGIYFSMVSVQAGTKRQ

cells [20] = experiment: cells
[21] = molecular target: DNA (cytosine-5)-methyltransferase 1 (Homo sapiens, UniProt P26358); experiment: DNMT1 methyltransferase inhibitors, confirmation, biochemical, fluorescent molecular beacon (AID 602386); format: functional
[22] = tested on: Streptococcus sp. 'group A'; experiment: growth inhibition of control SK(-) GAS strain, dose response, counter-screen for streptokinase expression inhibitor project, luminescence, kanamycin, BacTiterGlo, confirmation (AID 1900); format: functional, organism-based
Streptococcus = experiment: Group A Streptococcus viability loss, dose response, counter-screen for streptokinase expression inhibitor project, luminescence, BacTiterGlo (AID 1915); format: functional, organism-based;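 further: potency for reduction of bacterial viability or growth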
Streptokinase A = molecular target: T6, Streptokinase A (Streptococcus pyogenes serotype M1, UniProt P10520); experiment: S. pyogenes streptokinase expression inhibitors, potency, dose response, plasminogen activation absorbance, OD405 (AID 1914); format: functional, Streptococcus pyogenes M1 GAS;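 further: secreted streptokinase activity via plasminogen activation per viability signal from cell pellet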
T6 sequence (P10520 whole entry): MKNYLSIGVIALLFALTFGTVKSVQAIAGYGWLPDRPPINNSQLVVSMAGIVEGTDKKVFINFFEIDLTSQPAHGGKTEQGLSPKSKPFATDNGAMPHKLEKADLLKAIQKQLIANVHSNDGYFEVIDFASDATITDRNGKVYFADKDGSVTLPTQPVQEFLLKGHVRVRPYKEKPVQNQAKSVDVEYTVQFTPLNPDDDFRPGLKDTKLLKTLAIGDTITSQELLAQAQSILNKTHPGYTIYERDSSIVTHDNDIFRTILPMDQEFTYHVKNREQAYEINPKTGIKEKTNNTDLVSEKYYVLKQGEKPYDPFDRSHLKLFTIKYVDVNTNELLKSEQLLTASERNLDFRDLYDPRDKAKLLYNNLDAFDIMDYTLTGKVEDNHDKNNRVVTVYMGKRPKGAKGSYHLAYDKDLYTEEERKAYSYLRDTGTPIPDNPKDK

[23] = molecular target: Protein disulfide-isomerase (Homo sapiens, UniProt P07237); experiment: PDI inhibitors, insulin aggregation turbidity, dose response, biochemical, absorbance, cherry-picked samples (AID 602350); format: functional
Protein disulfide-isomerase, sequence (P07237 whole entry): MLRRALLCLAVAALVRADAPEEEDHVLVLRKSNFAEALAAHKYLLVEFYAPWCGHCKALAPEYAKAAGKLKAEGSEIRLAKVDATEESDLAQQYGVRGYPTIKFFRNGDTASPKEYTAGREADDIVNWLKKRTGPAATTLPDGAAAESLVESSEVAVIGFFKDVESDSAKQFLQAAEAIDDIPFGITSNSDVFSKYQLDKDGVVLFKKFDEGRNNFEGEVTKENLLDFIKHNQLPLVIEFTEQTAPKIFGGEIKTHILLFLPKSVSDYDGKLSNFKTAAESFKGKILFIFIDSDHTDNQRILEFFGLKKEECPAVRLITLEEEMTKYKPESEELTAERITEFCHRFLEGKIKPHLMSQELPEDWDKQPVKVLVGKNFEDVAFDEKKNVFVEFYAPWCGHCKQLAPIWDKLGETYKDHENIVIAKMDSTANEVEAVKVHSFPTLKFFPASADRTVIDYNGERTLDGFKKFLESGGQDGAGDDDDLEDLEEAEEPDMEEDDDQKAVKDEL

[24] = molecular target: T7, Mitochondrial peptide methionine sulfoxide reductase (Bos taurus, UniProt P54149); format: functional;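 further: absorbance read-out, biochemical high-throughput dose-response screen for MsrA inhibitors, confirmatory; recombinant bovine MsrA coupled to E. coli TrxB with NADPH and selenocystamine; potency is for inhibitors of MsrA activity on DMSO substrate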
T7 sequence (P54149 whole entry): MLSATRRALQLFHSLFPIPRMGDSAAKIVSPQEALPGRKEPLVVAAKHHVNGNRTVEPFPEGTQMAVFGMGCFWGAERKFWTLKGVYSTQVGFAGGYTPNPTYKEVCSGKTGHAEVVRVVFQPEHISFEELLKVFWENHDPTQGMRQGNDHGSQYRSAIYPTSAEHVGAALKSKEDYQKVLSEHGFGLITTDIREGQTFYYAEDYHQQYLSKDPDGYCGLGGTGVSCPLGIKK

T1 sequence (P63165 whole entry): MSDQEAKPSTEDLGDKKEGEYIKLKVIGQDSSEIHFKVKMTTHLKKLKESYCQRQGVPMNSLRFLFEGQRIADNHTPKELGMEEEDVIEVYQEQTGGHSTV

O=c1cc(-c2ccc(O)cc2)oc2c1ccc1ccccc12
IC50 [1]: 7.87 µM (active) | IC50 (Prothrombin): 62.2 µM (active) | IC50 [2]: 47.7 µM (active) | IC50 [3]: > 66.6 µM (inactive) | IC50 [4]: > 100 µM (inactive)

CCCCCn1c(N)c(-c2nc3ccccc3o2)c2c([N+](=O)[O-])nn(C)c(=O)c21
IC50 [5]: > 80 µM (inactive) | IC50 [6]: 3.06 µM (active) | IC50 [7]: 0.738 µM (active) | IC50 [8]: 0.343 µM (active)

Fc1ccccc1N=C(S)NNc1ncc(C(F)(F)F)cc1Cl
IC50 [9]: 3.55 µM (active) | IC50 [10]: 10 µM (active)

CCc1c(C)nc(N)nc1N1N=C1SCCOc1ccccc1
IC50 [9]: 4.47 µM (active) | IC50 [10]: 9.19 µM (active)

COc1cc(CN2CC(=O)N(c3ccccc3Cl)C2=S)cc(OC)c1OC
IC50 (Orexin receptor type 2 [11]): > 50 µM (inactive) | IC50 [12]: 1.01 µM (active) | IC50 [13]: 21.4 µM (inactive) | IC50 (Orexin receptor type 2 [14]): > 88.8 µM (inactive) | IC50 [15]: 6.26 µM (active) | IC50 (CHO-K1): > 66.2 µM (inactive)

CC(=O)Nc1ccc2[nH]c(-c3cccnc3)nc2c1
AC50 [16]: 4.1 µM (active)

Cc1ccc(-c2csc3nnc(SCC(=O)Nc4nsc(-c5ccccc5)n4)n23)cc1
IC50 (Orexin receptor type 2 [11]): 0.177 µM (active) | IC50 [12]: 2.53 µM (active) | IC50 [13]: > 49.7 µM (inactive) | IC50 (Orexin receptor type 2 [14]): > 88.8 µM (inactive) | IC50 [15]: 5.64 µM (active) | IC50 (CHO-K1): > 66.2 µM (inactive)

COc1ccc(/C=N/NC(=O)c2cccnc2)cc1CN1CCN(c2ccc(F)cc2)CC1
EC50 (cells [17]): > 350 µM (not active) | EC50 (cells [18]): > 350 µM (not active) | EC50 [19]: 1.01 µM (active)

CCOC(=O)C1=C(C)N=c2s/c(=C/c3ccc(OCC(=O)O)c(OC)c3)c(=O)n2C1c1ccc(Cl)cc1 (centres undefined)
IC50 (Prothrombin): 25.1 µM (active) | IC50 (cells [20]): 45.5 µM (active) | IC50 [21]: 10.2 µM (active) | IC50 [2]: 11.7 µM (active) | EC50 [22]: 9.79 µM (active) | EC50 (Streptococcus): 13.2 µM (active) | IC50 [4]: > 100 µM (inactive) | EC50 (Streptokinase A): > 150 µM (not active)

COc1ccccc1N1CCN(C(=O)C(=O)N/N=C/c2cccc(O)c2)CC1
AC50 [23]: 19.5 µM (active)

O=C(O)COc1ccc(/C=N/NC(=O)/C(=C/C=C/c2ccccc2)NC(=O)c2ccccc2)cc1
IC50 [24]: 103 µM (inactive)
